From article PMC9783881, “Synthesis and Preclinical Evaluation of Small-Molecule Prostate-Specific Membrane Antigen-Targeted Abiraterone Conjugate” (Molecules, 2022)
Where two headings read alike, the source gives them in different places.

Key:
PSA level = system: PSA level; set-up: method as in PMID 22995653; conditions: cited from earlier work
[1] = system: 22Rv1 prostate cancer subcutaneous xenograft; experiment: 22Rv1 human tumor xenograft mouse model; assay type: in vivo, Balb/c nude mice; conditions: 22Rv1 xenografts
Method: Male, 6–8 week old Balb/c nude mice with body weight range of 20–22 g were purchased from N.N.Blokhin Cancer Research Center. Animals were kept in plastic cages equipped with lids with feeding recesses, air filters, and feed dividers at 2–3 mice per cage.
Mice were injected subcutaneously in the right and left flanks with 1 × 10^7 22Rv1 cells in RPMI-1640 medium 0.2 mL supplemented with 0.2 mL Corning Matrigel® matrix (Corning, NY, USA) in a total volume of 400 μL. When the average size of the tumors reached ~100 mm^3, mice were randomly divided into three groups, with five mice per group, including a vehicle group (1% starch paste) and two treatment groups: PSMA-Abi 500 mg/kg/day and AbiAc 200 mg/kg/day for 14 days. The drugs were administered orally, and all compounds were formulated with 1% starch paste. Following the treatment, the primary tumor size was measured twice weekly with a micro-caliper, and the tumor volume was calculated using the formula: Volume = π/6 × length × width × height. Treatment outcome was based on percentage of tumor growth inhibition (%TGI), defined as the percent difference between the median tumor volumes (MTVs) of mice in the treated and control groups. Percent TGI was calculated using the following formula: %TGI = [1 − (MTV treatment group/MTV control)] 100%. All data are presented as means ± SD. Statistical analyses of in vivo research were performed using SPSS Statistics V. 22.0, comparing continuous variables by non-parametrical Mann–Whitney U. * p ≤ 0.05 was considered as significant in comparison with the control.

22Rv1 [2] = experiment: Single cell ROS measurement with Pt-nanoelectrodes, 22Rv1; assay type: cell-based, human; conditions: 22Rv1, 1 h incubation, IC50 concentration
Method: (§1) Commercially available, disk-shaped carbon nanoelectrodes isolated in quartz (ICAPPIC Limited, London, UK) with diameters of 60–100 nm were used to prepare Pt nanoelectrodes for the amperometric detection of intracellular ROS level. Preparation of Pt-nanoelectrodes has been described in detail previously.
(§2) Briefly, a disk-shaped carbon nanoelectrode was etched in a 0.1 M NaOH, 10 mM KCl solution for 20–40 cycles of 10 seconds (from 0 to +2200 mV) to create nanocavities. Electrochemical deposition of platinum in nanocavities was achieved by cycling from 0 to −800 mV with a scan rate of 200 mV s^−1 for 8 to 10 cycles in 2 mM H2PtCl6 solution in 0.1 M hydrochloric acid. […]
(§3) The setup for amperometric measurements included a PC that was connected to a system consisting of an ADC–DAC converter Axon Digidata 1550B (Axon Instruments, Burlingame, CA, USA) and patch-clamp amplifier MultiClamp 700B (Axon Instruments, USA). […] The potential difference between the Pt-nanoelectrode and the reference electrode was recorded with the pClamp 11 software suite (Molecular Devices, Silicon Valley, CA, USA) and processed with Origin 2018 software.
(§4) PC-3 (2.0 × 10^5)/22Rv1 (3.5 × 10^5) cells were seeded in 35 mm Petri dishes, incubated under the conditions described above, and then treated for 24 h. […] Untreated cells were used as a control, which was evaluated at the beginning and at the end of the experiment. […]

PC-3 [3] = experiment: Single cell ROS measurement with Pt-nanoelectrodes, PC-3; assay type: cell-based, human; conditions: PC-3, 1 h incubation, IC50 concentration
Method: as §1, §2, §3, §4

22Rv1 cells = experiment: Cell cycle analysis; assay type: cell-based, human
Method: Cell cycle was analyzed in 22Rv1 cells fixed in 70% ethanol with Muse® cell cycle kit. The fixation lasted overnight at −20 °C. Then, cells were collected by centrifugation at 4000 rpm for 10 min and washed with PBS. The cells were resuspended with Muse® Cell Cycle reagent and incubated for 30 min at room temperature in the dark; then, they were counted.

22Rv1 [4] = experiment: Cytotoxicity (CC50) on 22Rv1 cells; assay type: cell-based; conditions: Homo sapiens, 22Rv1, read-out: CC50, 22Rv1
Method: The in vitro efficacy study of the PSMA-Abi conjugate included an assessment of its cytotoxic potential towards prostate cancer cell cultures (Table 1). […] Thus, we observed an increase in the efficacy of the conjugate towards the PSMA-expressing line. Additionally, an evaluation in a non-tumor model was performed. The toxicity of both compounds was evaluated on human adult dermal fibroblasts (HDFa); both of the agents in the tested concentrations (0.4–100 µM) were non-toxic for human fibroblasts.
22Rv1 and PC-3 cells were received from the MISIS collection of cell lines (less than ten passages from ATCC stock). All cells were cultured in humidified 37 °C incubators with 5% CO2. All cell lines were tested for the absence of mycoplasma. 22Rv1, androgen-responsive PSMA-positive human prostate carcinoma cells, were cultured in RPMI 1640 media (Gibco) with 10% FBS (Gibco), 1× GlutaMax (Gibco), and 1× Penicillin-Streptomycin (10,000 U/mL, Gibco). PC-3, PSMA-negative human prostate cancer cells, were cultured in DMEM/F12 media (Gibco) with 10% FBS (Gibco), 1× GlutaMax (Gibco), and 1× Penicillin-Streptomycin (10,000 U/mL, Gibco).

PC-3 [5] = system: PC-3; set-up: method as in PMID 29310026; conditions: PC-3 cell line; cited from earlier work
[6] = Cytotoxicity on human adult dermal fibroblasts, MTT-test; assay type: cell-based; conditions: human, human adult dermal fibroblasts (HDFa); HDFa, 72 h, MTT
Method: Human adult dermal fibroblasts (HDFa). (ATCC) were propagated in DMEM medium (Paneco) supplemented with 10% fetal calf serum (Gibco) and 1% pemicillin/streptomycin in a 5% CO2 atmosphere at 37 °C. Cytotoxicity of PSMA-Abi and AbiAc in fibroblasts were studied using MTT-test. The cells in the exponential growth phase were trypsinized, counted, and seeded at a density of 5000 cells/well in 96-well plate. Cells were incubated with both tested agents at the designated concentrations (0.4–100 μM) for 72 h; then, each well was treated with 20 μL MTT solution in PBS (5 mg/mL) and cells were incubated at least for 3 h, and formazan was dissolved in DMSO. The absorbance was measured at […] and 620 nm using Thermofischer Scientific Multiscan FC. The values for each point were calculated from 6 wells.

[7] = mouse, in vivo; cited from earlier work
PSMA = system: PSMA; set-up: method as in PMID 33822606; conditions: PSMA ligand; cited from earlier work
[8] = oral x14, PSMA-Abi 500, AbiAc 200 mg/kg/day

C[C@]12CC[C@H](O)CC1=CC[C@@H]1[C@@H]2CC[C@]2(C)C(c3cccnc3)=CC[C@@H]12 [abiraterone]
patients with PSA level decreased by more than 90% (PSA level; chemotherapy-naïve patients): 40%
patients with PSA level decreased by more than 50% (PSA level; patients after ketoconazole therapy): 33%
patients with PSA level decreased by more than 50% (PSA level; patients who had not previously received chemotherapy): 85%

CC(=O)O[C@H]1CC[C@@]2(C)C(=CC[C@@H]3[C@@H]2CC[C@]2(C)C(c4cccnc4)=CC[C@@H]32)C1 [AbiAc, abiraterone acetate, reference compound]
TGImax (tumor growth inhibition) ([1]; oral x14, PSMA-Abi 500 mg/kg/day, AbiAc 200 mg/kg/day, after the end of treatment): 78%
TGI, day 15 after start of the treatment [1, 8]: 78%
TGI, day 18 after start of the treatment [1, 8]: 72%
TGI, day 22 after start of the treatment [1, 8]: 69%
Tumor volume (M+SE), day 15 [1, 8]: 547±64 mm3
Tumor volume (M+SE), day 18 [1, 8]: 811±72 mm3
Tumor volume (M+SE), day 22 [1, 8]: 997±110 mm3
Tumor volume (M+SE), day 0 ([1]; start of treatment): 91±20 mm3
ROS (hydrogen peroxide) level in single cells (22Rv1 [2]): significantly increased compared to the control
ROS (hydrogen peroxide) level in single cells (PC-3 [3]): significantly increased compared to the control
S cells (22Rv1 cells; 22Rv1): unaffected
level of G0/G1 cells (22Rv1 cells; 22Rv1, with increasing concentration): increased
percentage of 22Rv1 cells in the G2/M phase (22Rv1 cells; with increasing concentration, compared to control cells): decreased
CC50 (22Rv1 [4]): 22.7 ± 3.3 µM
CC50 (PC-3 [5]): 5.9 ± 0.8 µM
CC50 at 72 h [6]: > 100 µM
LD50 [7]: 800 mg/kg

[N-]=[N+]=NCCCNC(=O)[C@H](Cc1ccc(O)cc1)NC(=O)[C@H](Cc1ccccc1)NC(=O)CCC(=O)NCCCCCC(=O)N(CCCC[C@H](NC(=O)N[C@@H](CCC(=O)O)C(=O)O)C(=O)O)Cc1cccc(Cl)c1 [PSMA ligand 1]
IC50 (PSMA): 0.009 ± 0.003 µM
